SMILES | melting point [°C]
O=C(Nc1ccc(N2CCC2)nc1)c1cc2c(F)cccc2n1Cc1cccc(F)c1 [Compound 38, N-[6-(azetidin-1-yl)pyridin-3-yl]-4-fluoro-1-(3-fluorobenzyl)-1H-indole-2-carboxamide] | 214 to 216
O=C(Nc1ccc(N2CCC2)nc1)c1cc2ccc(C(F)(F)F)cc2n1Cc1cccc(F)c1 [Compound 52, N-[6-(azetidin-1-yl)pyridin-3-yl]-6-trifluoromethyl-1-(3-fluorobenzyl)-1H-indole-2-carboxamide] | 220 to 222
O=C(Nc1ccc(N2CC3CCC3C2)nc1)c1cc2cc(F)ccc2n1Cc1cccc(F)c1 (centres unmarked) [Compound 22, N-[6-(3-azabicyclo[3.2.0]hept-3-yl)pyridin-3-yl]-5-fluoro-1-(3-fluorobenzyl)-1H-indole-2-carboxamide] | 163 to 165
O=C(Nc1ccc(N2CCC2)nc1)c1cc2ccccc2n1Cc1cccc(F)c1 [Compound 44, N-[6-(azetidin-1-yl)pyridin-3-yl]-1-(3-fluorobenzyl)-1H-indole-2-carboxamide] | 328 to 330
O=C(Nc1ccc(N2CC(O)C2)nc1)c1cc2cc(C(F)(F)F)ccc2n1Cc1cccc(F)c1 [Compound 29, N-[6-(3-hydroxyazetidin-1-yl)pyridin-3-yl]-1-(3-fluorobenzyl)-5-trifluoromethyl-1H-indole-2-carboxamide] | 194 to 196
CCc1ccc2cc(C(=O)Nc3ccc(N4CCC4)nc3)n(Cc3cccc(F)c3)c2c1 [Compound 50, N-[6-(azetidin-1-yl)pyridin-3-yl]-6-ethyl-1-(3-fluorobenzyl)-1H-indole-2-carboxamide] | 196 to 198
CC(C)c1ccc2cc(C(=O)Nc3ccc(N4CCC4)nc3)n(Cc3cccc(F)c3)c2c1 [Compound 51, N-[6-(azetidin-1-yl)pyridin-3-yl]-6-isopropyl-1-(3-fluorobenzyl)-1H-indole-2-carboxamide] | 184 to 186
CC(C)(C)c1ccc2cc(C(=O)Nc3ccc(N4CCC4)nc3)n(Cc3cccc(F)c3)c2c1 [Compound 33, N-[6-(azetidin-1-yl)pyridin-3-yl]-6-tert-butyl-1-(3-fluorobenzyl)-1H-indole-2-carboxamide] | 204 to 206
Cc1cccc2c1cc(C(=O)Nc1ccc(N3CCC3)nc1)n2Cc1cccc(F)c1 [Compound 45, N-[6-(azetidin-1-yl)pyridin-3-yl]-4-methyl-1-(3-fluorobenzyl)-1H-indole-2-carboxamide] | 246 to 248
O=C(Nc1ccc(N2CCC2)nc1)c1cc2c(Cl)cccc2n1Cc1cccc(F)c1 [Compound 41, N-[6-(azetidin-1-yl)pyridin-3-yl]-4-chloro-1-(3-fluorobenzyl)-1H-indole-2-carboxamide] | 226 to 228
CC(C)Oc1ccc2cc(C(=O)Nc3ccc(N4CCC4)nc3)n(Cc3cccc(F)c3)c2c1 [Compound 34, N-[6-(azetidin-1-yl)pyridin-3-yl]-6-isopropyloxy-1-(3-fluorobenzyl)-1H-indole-2-carboxamide] | 198 to 200
CSc1ccc2cc(C(=O)Nc3ccc(N4CCC4)nc3)n(Cc3cccc(F)c3)c2c1 [Compound 37, N-[6-(azetidin-1-yl)pyridin-3-yl]-6-methylthio-1-(3-fluorobenzyl)-1H-indole-2-carboxamide] | 206 to 208
O=C(Nc1ccc(N2CC(O)C2)nc1)c1cc2ccc(C(F)(F)F)cc2n1Cc1cccc(F)c1 [Compound 30, N-[6-(3-hydroxyazetidin-1-yl)pyridin-3-yl]-1-(3-fluorobenzyl)-6-trifluoromethyl-1H-indole-2-carboxamide] | 253 to 255

More lines, now with the values ahead:

melting point [°C] | SMILES
210 to 212 | O=C(Nc1ccc(N2CCC2)nc1)c1cc2ccc(F)cc2n1Cc1cccc(F)c1 [Compound 40, N-[6-(azetidin-1-yl)pyridin-3-yl]-6-fluoro-1-(3-fluorobenzyl)-1H-indole-2-carboxamide]
218 to 220 | O=C(Nc1ccc(N2CCC2)nc1)c1cc2ccc(Cl)cc2n1Cc1cccc(F)c1 [Compound 42, N-[6-(azetidin-1-yl)pyridin-3-yl]-6-chloro-1-(3-fluorobenzyl)-1H-indole-2-carboxamide]
208 to 210 | O=C(Nc1ccc(N2CCC2)nc1)c1cc2cc(F)ccc2n1Cc1ccccc1 [Compound 31, N-[6-(azetidin-1-yl)pyridin-3-yl]-5-fluoro-1-(benzyl)-1H-indole-2-carboxamide]
258 to 260 | CS(=O)(=O)c1ccc2c(c1)cc(C(=O)Nc1ccc(N3CCC3)nc1)n2Cc1cccc(F)c1 [Compound 35, N-[6-(azetidin-1-yl)pyridin-3-yl]-5-methylsulphonyl-1-(3-fluorobenzyl)-1H-indole-2-carboxamide]
222 to 224 | O=C(Nc1ccc(N2CCC2)nc1)c1cc2cc(C(F)(F)F)ccc2n1Cc1cccc(F)c1 [Compound 25, N-[6-(azetidin-1-yl)pyridin-3-yl]-5-trifluoromethyl-1-(3-fluorobenzyl)-1H-indole-2-carboxamide]
212 to 214 | CC(C)(C)c1ccc2c(c1)cc(C(=O)Nc1ccc(N3CCC3)nc1)n2Cc1cccc(F)c1 [Compound 49, N-[6-(azetidin-1-yl)pyridin-3-yl]-5-tert-butyl-1-(3-fluorobenzyl)-1H-indole-2-carboxamide]
212 to 214 | O=C(Nc1ccc(N2CCC2)nc1)c1cc2cc(F)ccc2n1Cc1ccncc1 [Compound 26, N-[6-(azetidin-1-yl)pyridin-3-yl]-1-[(pyridin-4-yl)methyl]-5-fluoro-1H-indole-2-carboxamide]
236 to 238 | Cc1ccc2c(c1)cc(C(=O)Nc1ccc(N3CCC3)nc1)n2Cc1cccc(F)c1 [Compound 47, N-[6-(azetidin-1-yl)pyridin-3-yl]-5-methyl-1-(3-fluorobenzyl)-1H-indole-2-carboxamide]
225 to 226 | COc1cc(N2CCCC2)ncc1NC(=O)c1cc2cc(F)ccc2n1Cc1ccncc1 [Compound 18, N-[4-methoxy-6-(pyrrolidin-1-yl)pyridin-3-yl]-5-fluoro-1-[(pyridin-4-yl)methyl]-1H-indole-2-carboxamide]
228 to 230 | Cc1ccc2cc(C(=O)Nc3ccc(N4CCC4)nc3)n(Cc3cccc(F)c3)c2c1 [Compound 46, N-[6-(azetidin-1-yl)pyridin-3-yl]-6-methyl-1-(3-fluorobenzyl)-1H-indole-2-carboxamide]
226 to 228 | O=C(Nc1ccc(N2CCC2)nc1)c1cc2cc(Cl)ccc2n1Cc1cccc(F)c1 [Compound 43, N-[6-(azetidin-1-yl)pyridin-3-yl]-5-chloro-1-(3-fluorobenzyl)-1H-indole-2-carboxamide]
170 to 171 | O=C(Nc1cnc(N2CCCC2)cc1C(F)(F)F)c1cc2cc(F)ccc2n1Cc1cccc(F)c1 [Compound 53, N-[6-(pyrrolidin-1-yl)-4-(trifluoromethyl)pyridin-3-yl]-5-fluoro-1-(3-fluorobenzyl)-1H-indole-2-carboxamide]
204 to 206 | CC(C)c1ccc2c(c1)cc(C(=O)Nc1ccc(N3CCC3)nc1)n2Cc1cccc(F)c1 [Compound 48, N-[6-(azetidin-1-yl)pyridin-3-yl]-5-isopropyl-1-(3-fluorobenzyl)-1H-indole-2-carboxamide]

From patent US8586573B2, “N-(Aminoheteroaryl)-1H-indole-2-carboxamide derivatives, and preparation and therapeutic application thereof” (Sanofi, priority 2006, dated 2013)
